Reference: US9220680B2, “Compositions and methods for localized drug delivery through mammary papillae” (South Dakota State University, priority 2012, dated 2015)
Entries after “also recorded” stand apart in the source; their conditions may differ. Read-outs that look alike come from different tables or passages of the source.

Key:
[1] = rat
[2] = Permeation across human mammary areola vs human breast skin (Experiments 19-21); conditions: cadaver tissue; donor in 50:50 ethanol:water; 48 hours
Protocol: (§1) Mammary areolae and skin tissues were procured from a cadaver (Pacific Islander). […] The drug solutions were spiked with radioactive substances. Now 500 μl of the formulation was placed in the donor. Receptor medium was PBS with 7.4 pH. Three […] samples of donor were taken to determine DPM of donors. 200 μl samples were taken from the receptor at pre-determined time points. […] Results may be seen in FIG. 44.
as §1, with “45.” for “44.”
as §1, with “46.” for “44.”

[3] = Biodistribution of 5FU in rats 6 hours after intraductal and intravenous injection (Experiment 23); type: in vivo, Sprague-Dawley rats; conditions: rat
Protocol: The hair on the skin of the rats was removed using a hair removing formulation. The treatment was given after 24 hours to make sure the skin is recovered if damaged or altered due to the hair removal treatment.
Next day, the rats were placed under controlled Isoflurane anesthesia. Now 500 μl of Blood samples were collected from each animal before beginning the experiment, by retro-orbital technique, as a control. For intraductal injection the mammary papilla to be treated was gently wiped with an alcoholic cotton swab to remove the keratin plug. Now 100 μl of 5FU solution in saline (10 mg/ml) was injected into the duct of the mammary papilla under a stereo-microscope. After this the animal was removed from anesthesia and placed into the cage. In case of intravenous injection, similar to intraductal, 100 μl of 5FU solution in saline (10 mg/ml) was injected into the tail vein and the animal was placed into the cage for 6 hours. At the end of 6 hours 500 μl of blood sample was collected. After this the rats were euthanized. Now for intraductal injection the treated area of the rat was cleaned with water. The rat was opened from the abdominal skin. Treated mammary papilla and mammary gland existing underneath the treated mammary papilla was excised and collected. Lateral mammary papilla and mammary gland was collected along with distant mammary papilla and mammary gland, as controls. Followed by this other organs including heart, brain, liver, spleen, kidneys and lungs were collected. In case of intravenous treatment, blood was collected and mammary tissues (mammary papilla, mammary gland and surrounding breast skin) was collected along with other organs including heart, brain, liver, spleen, kidneys and lungs. All the tissues were weighed and then mechanically homogenized to extract the drug. The homogenates were mixed with hydrogen peroxide solution (30% v/v) and then radioactivity into the samples was measured by liquid scintillation counting. Similarly blood samples were centrifuged and the supernatants were analyzed by scintillation counting. Results may be seen in FIG. 49, Table 28 and Table 29.

[4] = Permeation across human breast skin (Experiments 16-18); type: in vitro ADME; conditions: human breast skin, value (SEM)
Excerpt: Mammary papillae and skin tissues were thawed. Keratin plugs were removed from the mammary papilla tissues using swabs with ethanol. […] The drug solutions were spiked with radioactive substances. […] Receptor medium was PBS with 7.4 pH. […] Results may be seen in FIG. 41 and Table 20.
Mammary papillae and skin tissues were thawed. Keratin plugs were removed from the mammary papilla tissues using swabs with ethanol. […] The drug solutions were spiked with radioactive substances. […] Receptor medium was PBS with 7.4 pH. […] Results may be seen in FIG. 42 and Table 22. […]

O=c1[nH]cc(F)c(=O)[nH]1 [5FU, 5-fluorouracil]
Profile of 5FU in plasma ([1]; intravenous injection): quickly eliminating from the blood
Retention of 5FU in mammary papilla ([1]; intravenous injection, 30 minutes): some accumulation of 5FU into the mammary papilla
5FU retention into the vital organs (kidneys, heart, liver, lungs, spleen and brain) ([1]; topical application (transmammary and transdermal) vs intravenous injection): several folds lower than that after intravenous injection
5FU in blood / plasma ([1]; topical delivery (transmammary and transdermal), 6 h): no amount of 5FU was observed into the blood; also recorded: below the level of detection
Retention of 5FU in mammary papilla ([1]; transdermal treatment, 6 h): no 5FU was observed into the mammary papilla
Amount of 5FU in mammary gland ([1]; transmammary treatment 250 μl of 10 mg/ml for 6 h, compared with intravenous and transdermal): highest amount of 5FU in mammary gland
Retention of 5FU in mammary papilla ([1]; transmammary treatment, 6 h): significant retention of 5FU into the mammary papilla
Permeability across human mammary areola compared with human breast skin [2]: lower than that across human breast skin
5FU in vital organs of the body ([3]; intraductal and intravenous injection): significant amount of 5FU in vital organs of the body including kidneys, liver and brain
Drug per gram tissue, mammary gland ([3]; intraductal injection): 0 µmol/g
Drug per gram tissue, surrounding skin ([3]; intraductal injection): 0.23 µmol/g
Drug per gram tissue of mammary papilla ([3]; intraductal injection 100 μl of 10 mg/ml 5FU in saline): 1.36 µmol/g
Drug per gram tissue, mammary gland ([3]; intravenous injection): 0 µmol/g
Drug per gram tissue, surrounding skin ([3]; intravenous injection): 0 µmol/g
Drug per gram tissue of mammary papilla ([3]; intravenous injection 100 μl of 10 mg/ml 5FU in saline): 0 µmol/g
lag time ([4]; 5FU 20 mg/ml in 1:1 ethanol:water): 3.64 (0.37) hours
cumulative amount permeated ([4]; 5FU 20 mg/ml, 48 hours): 2.69 (0.22) μmole
Drug retention in tissue ([4]; 5FU 20 mg/ml, end of 48 hours): 9.56 (1.11) umole/g of tissue
Flux ([4]; 5FU 20 mg/ml): 0.08 (0.01) μmole/cm^2/hour
